Assay results as given in publication PMC2430196, “Antagonist affinity measurements at the Gi-coupled human histamine H3 receptor expressed in CHO cells” (BMC Pharmacology, 2008).
Where two headings read alike, the source gives them in different places. One block for each molecule: values may come before it.

Tests used:
[1] = molecular target: T1, human histamine H3 receptor (Homo sapiens, UniProt Q9Y5N1); experiment: CRE-SPAP gene transcription in forskolin-stimulated CHO-H3-SPAP cells; conditions: for Kd / Schild slope / pKD values: CRE-SPAP; for agonist character in CRE-SPAP screen: inhibition of forskolin-stimulated CRE-SPAP production; for Schild slope: 3 antagonist concentrations; for pIC50, CRE-SPAP: agonism, inhibition of 4 μM forskolin-stimulated CRE-SPAP production
T1 sequence (Q9Y5N1 whole entry): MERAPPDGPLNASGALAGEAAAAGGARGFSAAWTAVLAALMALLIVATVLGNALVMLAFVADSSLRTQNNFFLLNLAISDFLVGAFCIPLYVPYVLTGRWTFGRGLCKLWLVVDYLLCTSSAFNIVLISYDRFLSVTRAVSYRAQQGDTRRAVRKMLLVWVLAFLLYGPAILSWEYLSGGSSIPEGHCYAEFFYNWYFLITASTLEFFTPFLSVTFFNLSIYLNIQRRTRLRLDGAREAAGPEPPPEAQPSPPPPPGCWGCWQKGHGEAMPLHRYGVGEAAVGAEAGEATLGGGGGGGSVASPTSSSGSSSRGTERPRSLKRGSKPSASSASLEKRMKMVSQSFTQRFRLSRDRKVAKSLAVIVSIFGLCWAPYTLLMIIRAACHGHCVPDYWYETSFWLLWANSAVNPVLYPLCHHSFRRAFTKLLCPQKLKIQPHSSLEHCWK
Experimental: (§1) The transfected cells were selected for neomycin resistance (1 mg/ml; for H3 receptor) and hygromycin resistance (200 μg/ml; for CRE-SPAP reporter gene) for 3 weeks and passaged twice during in this period. A single clone was then isolated by dilution cloning to give a clonal line (CHO-H3-SPAP cells). The parent cell CRE-SPAP was also used for control experiments (CHO-SPAP cells).
(§2) Cells were grown to confluence in 96-well tissue culture plates. The cells were then serum starved by removing the media and replacing it with 100 μl serum free media (DMEM/F12 containing 2 mM L-glutamine). […] Where used, pertussis toxin, at a final concentration of 100 ng/ml was added to the serum-free media and thus incubated with the cells for 24 hours. On the day of experimentation, the serum-free media was removed and replaced with 100 μl serum-free media or 100 μl serum-free media containing an antagonist at the final required concentration and the cells incubated for 1 hour. Agonist in 10 μl (diluted in serum free media) was then added to each well and the cells incubated for 10 minutes. Forskolin was then added to all but the basal wells to give a final well concentration of 4 μM and the plates incubated for 5 hours. After 5 hours, the media and all drugs were removed. […] The plates were then incubated at 65°C for 30 minutes to destroy any endogenous phosphatases. After cooling to 37°C, 100 μl 5 mM pNPP in diethanolamine buffer was added to each well and the plates incubated at 37°C in a normal atmosphere until the yellow colour developed.
(§3) Sigmoidal concentration-response curves were fitted to the data using Graphpad Prism 2 and the following equation:
(§4) Antagonist KD values were then calculated from the shift of the agonist concentration responses in the presence of a fixed concentration of antagonist using the following equation:
(§5) where DR (dose ratio) is the ratio of the agonist concentration required to stimulate an identical response in the presence and absence of a fixed concentration of antagonist [B].
(§6) In experiments where three different fixed concentrations of the same antagonist were used, Schild plots were constructed using the following equation:
Log (DR-1) = log [B] - log (KD)
(§7) These points were then fitted to a straight line.
(§8) Partial agonist dissociation constants were therefore estimated according to the method of Stephenson [35] using the following equation:
(§9) KD partial agonist=X.[P]/1−Xwhere X=[A2]−[A1]/[A3]

[2] = molecular target: T1, human histamine H3 receptor; experiment: cell-based
Experimental: as §1, §2, §3, §4, §5, §6
Log (DR-1) = log [B] - log (KD)
as §7, §8, §9

[3] = molecular target: T1, human histamine H3 receptor; experiment: 3H-cAMP accumulation in forskolin-stimulated CHO-H3-SPAP cells; type: cell-based; design: secondarily transfected with the full length human histamine H3 receptor; host or cells: CHO-K1 cells with CRE-SPAP reporter (clonal line CHO-H3-SPAP); conditions: for intrinsic activity response in 3H-cAMP accumulation: n = 4
Experimental: Cells were grown to confluence in 24-well plates. The media was removed and the cells pre-labelled with ^3H-adenine by incubation with 2 μCi/ml ^3H-adenine in serum-free media (0.5 ml per well) for 3 hours. The ^3H-adenine was then removed and the cells washed by the addition then removal of 1 ml serum-free media. […] Forskolin (final concentration of 10 μM) was then added to all but the basal wells and the plates incubated for 30 minutes. The reaction was terminated by the addition of 50 μl concentrated HCl per well and the plates were then frozen. Later, the plates were thawed and ^3H-cAMP separated from other ^3H-nucleotides by sequential Dowex and alumina column chromatography, as previously described.
When the intrinsic efficacy of the antagonist ligands was examined, the antagonists were incubated for 5 hours at 37°C in order to maximise the chance of detecting any changes in ^3H-cAMP accumulation.
Response=Emax×[A]/IC50+[A]

CHO-SPAP cells = experiment: CRE-SPAP gene transcription in parent CHO-SPAP cells (without the H3 receptor); type: cell-based, Chinese hamster; conditions: for IC50: Cricetulus griseus, CHO-SPAP cells (without the receptor), read-out: pIC50, CRE-SPAP, low potency component (converted)
Experimental: The response to all ligand used in this study was examined in the parent CHO-SPAP cells (expressing the reporter but not the human H3 receptor). Full 7-point concentration response curves were constructed, in the presence and absence of 4 μM forskolin. […].

[4] = molecular target: T1, human histamine H3 receptor
Experimental: as §1, §2, §3, §4, §5, §6
Log (DR-1) = log [B] - log (KD)
as §7, §8, §9

CHO-H3-SPAP cells = experiment: Trypan blue uptake in CHO-H3-SPAP cells; conditions: 5 hours incubation
[5] = Log KD values, agonist N-α-methylhistamine
[6] = Log KD values, agonist R-α-methylhistamine
[7] = Log KD values, agonist S-α-methylhistamine
[8] = Log KD values, agonist VUF 8430
[9] = Log KD values, agonist histamine
[10] = Log KD values, agonist immethridine
[11] = Log KD values, agonist impentamine (first component of the response)
[12] = Log KD values, agonist proxyfan
[13] = agonism, inhibition of 10 μM forskolin-stimulated 3H-cAMP accumulation, CHO-H3-SPAP cells, read-out: pIC50, 3H-cAMP accumulation (converted)
[14] = agonism, inhibition of 10 μM forskolin-stimulated 3H-cAMP accumulation, CHO-H3-SPAP cells

Structure (SMILES): c1cc(Cc2cnc[nH]2)ccn1 [immethridine]
IC50 [1]: 0.389 nM | IC50 [3]: 0.174 nM

Structure (SMILES): CC(C1=C(CCN(C)C)Cc2ccccc21)c1ccccn1 (centres unmarked) [dimethindine, dimethindene]
Kd [2]: 1910 nM | Kd [1, 5]: 2140 nM | Kd [1, 6]: 2240 nM | Kd [1, 7]: 2140 nM | Kd [1, 8]: 7760 nM | Kd [1, 9]: 2340 nM | Kd ([1]; Log KD values, agonist imetit): 2510 nM | Kd [1, 10]: 4170 nM | Kd [1, 11]: 2570 nM | Kd [1, 12]: 5750 nM | intrinsic activity response in 3H-cAMP accumulation ([3]; 5 hours incubation with ligand): No responses

Structure (SMILES): Cc1nc(N)sc1CCN [amthamine]
IC50 [1]: 13500 nM

Structure (SMILES): S=C(NC1CCCCC1)N1CCC(c2cnc[nH]2)CC1 [thioperamide]
Schild slope ([1]; agonist N-α-methylhistamine): 0.98 ± 0.07 | Schild slope ([1]; agonist R-α-methylhistamine): 1.00 ± 0.05 | Schild slope ([1]; agonist S-α-methylhistamine): 1.01 ± 0.08 | Schild slope ([1]; agonist histamine): 1.01 ± 0.03 | Schild slope ([1]; agonist imetit): 1.02 ± 0.07 | Schild slope ([1]; agonist immepip): 1.06 ± 0.02 | Schild slope ([1]; agonist immethridine): 1.08 ± 0.04 | Schild slope ([1]; agonist proxyfan): 1.02 ± 0.03 | inverse agonist response, 3H-cAMP accumulation ([3]; 5 hours incubation with ligand): 106.3 ± 2.6 % basal

Structure (SMILES): Cc1nc[nH]c1CCN [4-methylhistamine]
IC50 [1]: 11500 nM

Structure (SMILES): c1cc(CN2CCCCC2)cc(OCCCNc2nc3ccccc3s2)c1 [zolatidine]
Kd [4]: 282 nM | pKD values ([1]; agonist N-α-methylhistamine): 6.46 ± 0.07 | Schild slope ([1]; agonist N-α-methylhistamine): 1.10 ± 0.12 | pKD values ([1]; agonist R-α-methylhistamine): 6.52 ± 0.06 | Schild slope ([1]; agonist R-α-methylhistamine): 1.04 ± 0.04 | pKD values ([1]; agonist S-α-methylhistamine): 6.54 ± 0.07 | Schild slope ([1]; agonist S-α-methylhistamine): 1.10 ± 0.07 | pKD values ([1]; agonist VUF 8430): 6.38 ± 0.10 | pKD values ([1]; agonist histamine): 6.51 ± 0.07 | Schild slope ([1]; agonist histamine): 1.01 ± 0.04 | pKD values ([1]; agonist imetit): 6.62 ± 0.08 | Schild slope ([1]; agonist imetit): 1.17 ± 0.05 | Schild slope ([1]; agonist immepip): 1.18 ± 0.08 | pKD values ([1]; agonist immethridine): 6.66 ± 0.05 | Schild slope ([1]; agonist immethridine): 0.96 ± 0.02 | pKD values ([1]; agonist impentamine (first component of the response)): 6.52 ± 0.10 | pKD values ([1]; agonist proxyfan): 6.78 ± 0.06 | Schild slope ([1]; agonist proxyfan): 0.91 ± 0.11 | intrinsic activity response in 3H-cAMP accumulation ([3]; 5 hours incubation with ligand): No responses

Structure (SMILES): C[C@H]1[C@H]2CC[C@H]3[C@@H]4CC=C5C[C@@H](N(C)C)CC[C@]5(C)[C@H]4CC[C@]23CN1C [conessine]
Kd [2]: 8.13 nM | Schild slope ([1]; agonist N-α-methylhistamine): 0.98 ± 0.05 | Schild slope ([1]; agonist R-α-methylhistamine): 1.00 ± 0.06 | Schild slope ([1]; agonist S-α-methylhistamine): 1.08 ± 0.04 | Schild slope ([1]; agonist histamine): 1.07 ± 0.03 | Schild slope ([1]; agonist imetit): 1.18 ± 0.09 | Schild slope ([1]; agonist immepip): 1.09 ± 0.05 | Schild slope ([1]; agonist immethridine): 1.14 ± 0.08 | Kd ([1]; pKD values, agonist N-α-methylhistamine): 5.37 nM | Kd ([1]; pKD values, agonist R-α-methylhistamine): 5.75 nM | Kd ([1]; pKD values, agonist S-α-methylhistamine): 5.25 nM | Kd ([1]; pKD values, agonist VUF 8430): 7.08 nM | Kd ([1]; pKD values, agonist histamine): 5.13 nM | Kd ([1]; pKD values, agonist imetit): 5.75 nM | Kd ([1]; pKD values, agonist immethridine): 3.8 nM | Kd ([1]; pKD values, agonist impentamine (first component of the response)): 4.17 nM | Kd ([1]; pKD values, agonist proxyfan): 2.75 nM | inverse agonist response, 3H-cAMP accumulation ([3]; 5 hours incubation with ligand): 120 ± 1.5 % basal | EC50 ([3]; 5 hours incubation with ligand, read-out: pEC50, inverse agonist response, 3H-cAMP accumulation (converted)): 3.09 nM

Structure (SMILES): CNCCc1cnc[nH]1 [N-α-methylhistamine]
pIC50, CRE-SPAP ([1]; CHO-H3-SPAP cells): 8.89 ± 0.04 | pIC50, 3H-cAMP accumulation [3, 14]: 9.45 ± 0.05

Structure (SMILES): Cn1cncc1CCN [3-methylhistamine]
IC50 [1]: 13500 nM

Structure (SMILES): CC(CCCCC(=O)Nc1ccc(C(F)(F)F)cc1)NCCc1cnc[nH]1 (centres unmarked) [HTMT, histamine trifluoromethyl toluidide]
pIC50, CRE-SPAP ([1]; CHO-H3-SPAP cells): 5.21 ± 0.18

Structure (SMILES): c1nc(CC2CCNCC2)c[nH]1 [immepip]
IC50 [1]: 0.224 nM | IC50 [3]: 0.0501 nM

Structure (SMILES): NCCCCCc1cnc[nH]1 [impentamine]
IC50 (CHO-SPAP cells; with forskolin): 4680 nM | IC50 (CHO-SPAP cells; without forskolin): 3890 nM | intracellular uptake of trypan blue (CHO-H3-SPAP cells): did not show any intracellular uptake of trypan blue | agonist character in CRE-SPAP screen ([1]; CHO-H3-SPAP cells): partial agonist actions | IC50 ([1]; pIC50, CRE-SPAP, low potency component, CHO-H3-SPAP cells, absence of forskolin, with PTX pre-incubation): 5130 nM | IC50 ([1]; pIC50, CRE-SPAP, low potency component, CHO-H3-SPAP cells, absence of forskolin, without PTX pre-incubation): 6610 nM | IC50 ([1]; pIC50, CRE-SPAP, second component remaining after PTX, forskolin-stimulated CHO-H3-SPAP cells, 24 hours pre-incubation with PTX): 6030 nM | IC50 ([1]; pIC50 Site 1, CRE-SPAP, first component of two-component response, forskolin-stimulated CHO-H3-SPAP cells): 25.7 nM | pIC50 Site 2, CRE-SPAP ([1]; second component of two-component response, forskolin-stimulated CHO-H3-SPAP cells): Site 2 5.40 ± 0.05 | IC50 ([3]; read-out: pIC50, 3H-cAMP accumulation (converted)): 3.72 nM

Structure (SMILES): NC(=NCc1ccc(Cl)cc1)SCCCc1cnc[nH]1 [clobenpropit]
Schild slope ([1]; agonist N-α-methylhistamine): 1.08 ± 0.07 | Schild slope ([1]; agonist R-α-methylhistamine): 1.10 ± 0.06 | Schild slope ([1]; agonist S-α-methylhistamine): 1.09 ± 0.04 | Schild slope ([1]; agonist histamine): 0.98 ± 0.03 | Schild slope ([1]; agonist imetit): 1.02 ± 0.04 | Schild slope ([1]; agonist immepip): 1.05 ± 0.02 | Schild slope ([1]; agonist immethridine): 1.02 ± 0.04 | intrinsic activity response in 3H-cAMP accumulation ([3]; 5 hours incubation with ligand): No responses

Structure (SMILES): NCCc1ccccn1 [2-pyridylethylamine]
IC50 [1]: > 100000 nM

Second part, led by results:

IC50 [1]: 2570 nM
Structure (SMILES): CN(C)CCCSC(=N)N [dimaprit]

Kd [2]: 2570 nM | Kd [1, 5]: 3090 nM | Kd [1, 6]: 3630 nM | Kd [1, 7]: 3630 nM | Kd [1, 8]: 7410 nM | Kd [1, 9]: 4790 nM | Kd ([1]; Log KD values, agonist imetit): 2630 nM | Kd [1, 10]: 2950 nM | Kd [1, 11]: 6170 nM | Kd [1, 12]: 4070 nM | intrinsic activity response in 3H-cAMP accumulation ([3]; 5 hours incubation with ligand): No responses
Structure (SMILES): CN(C)CCC(c1ccc(Cl)cc1)c1ccccn1 (centres unmarked) [chlorpheniramine]

Kd [2]: 19.1 nM | IC50 [1]: 25.1 nM | Kd [1, 5]: 11.2 nM | Kd [1, 6]: 25.1 nM | Kd [1, 7]: 17.8 nM | Kd [1, 8]: 19.5 nM | Kd [1, 9]: 17 nM | Kd ([1]; Log KD values, agonist imetit): 14.1 nM | Kd [1, 10]: 16.2 nM | Kd [1, 12]: 15.8 nM | agonist character in CRE-SPAP screen ([1]; CHO-H3-SPAP cells): agonist properties | IC50 [3, 13]: 3.89 nM | IC50 ([3]; pIC50, 3H-cAMP accumulation, 5 hours incubation, partial agonist response, 5 hours incubation with ligand): 3.8 nM
Structure (SMILES): Br.Br.c1nc(CCCC2CCNCC2)c[nH]1 [VUF 5681, 4-[3-(1H-imidazol-4-yl)propyl]piperidine dihydrobromide]
CRE-SPAP response in parent CHO-SPAP cells (CHO-SPAP cells; presence and absence of 4 μM forskolin, up to 100 μM (10 μM for zolatidine, conessine, iodophenpropit, clobenpropit, clemastine)): A small decrease from maximum was seen only at the highest concentration (100 μM)

Kd [2]: 2450 nM | Kd [1, 5]: 4570 nM | Kd [1, 6]: 2630 nM | Kd [1, 7]: 3390 nM | Kd [1, 8]: 5500 nM | Kd [1, 9]: 4470 nM | Kd ([1]; Log KD values, agonist imetit): 3720 nM | Kd [1, 10]: 2950 nM | Kd [1, 11]: 2240 nM | Kd [1, 12]: 5890 nM | intrinsic activity response in 3H-cAMP accumulation ([3]; 5 hours incubation with ligand): No responses
Structure (SMILES): Cc1ccc(/C(=C\CN2CCCC2)c2ccccn2)cc1 [triprolidine]

IC50 [1]: 0.437 nM | IC50 [3]: 0.123 nM
Structure (SMILES): N=C(N)SCCc1cnc[nH]1 [imetit]

IC50 [1]: 16.2 nM | IC50 [3, 13]: 4.9 nM
Structure (SMILES): c1ccc(COCCCc2c[nH]cn2)cc1 [proxyfan]

IC50 [1]: 20000 nM
Structure (SMILES): Cn1cnc(CCN)c1 [1-methylhistamine]

pIC50, CRE-SPAP ([1]; CHO-H3-SPAP cells): 5.66 ± 0.08 | pIC50, 3H-cAMP accumulation [3, 14]: 6.38 ± 0.07
Structure (SMILES): Br.Br.N=C(N)NCCSC(=N)N [VUF 8430, 2-[(aminoiminmethyl)amino]ethyl carbamimidothioic acid ester dihydrobromide]

IC50 [1]: 427 nM | agonist character in CRE-SPAP screen ([1]; CHO-H3-SPAP cells): partial agonist actions | IC50 [3, 13]: 224 nM
Structure (SMILES): CNC(=S)NCCCCc1cnc[nH]1 [burimamide]
